Experimental data as given in patent US20230135729A1, “COMPOUND WITH ANTI-SPORE ACTIVITY AND PHARMACEUTICAL COMPOSITION THEREOF” (priority 2020, published 2023).
In brackets after ≈: the same amount, converted by molar mass. Where two headings read alike, the source gives them in different places.

Experiments:
Format in all cases: cell-based
[1] = test system: spores of ATCC BBA1870 strain; assay: Inhibition of germination of C. difficile spores (MIC), strain ATCC BBA1870; details: Clostridioides difficile, ATCCBBA1870STRAIN, 1 h, read-out: MIC (minimum concentration that completely inhibits spore germination)
In short: (§1)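 Germination was followed as the drop in OD580 over 60 min at 37° C in BHIS after adding sodium taurocholate to spores premixed with compound. Spores were first heat-activated (65° C, 30 min) and washed free of self-germinating spores. The inhibition rate was calculated against germinant and non-germinant controls.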

[2] = test system: spores of ATCC 630 strain; assay: Inhibition of germination of C. difficile spores (MIC), strain ATCC 630; details: Clostridioides difficile, ATCC630, 1 h, read-out: MIC (minimum concentration that completely inhibits spore germination)
In short: as §1

[3] = test system: spores of ATCC 43255 strain; assay: Inhibition of germination of C. difficile spores (MIC), strain ATCC 43255; details: Clostridioides difficile, ATCC43255, 1 h, read-out: MIC (minimum concentration that completely inhibits spore germination)
In short: as §1

[4] = strain 1870, sodium taurocholate as germinant, BHIS medium, 37° C., OD580 for 60 min
[5] = strain 630, sodium taurocholate as germinant, BHIS medium, 37° C., OD580 for 60 min
[6] = strain 43255, sodium taurocholate as germinant, BHIS medium, 37° C., OD580 for 60 min

Compound	MIC [1]	MIC [2]	MIC [3]	MIC [1, 4]	MIC [2, 5]	MIC [3, 6]
CCC(NC(=O)C[C@@H](C)[C@H]1CC[C@H]2[C@@H]3C(=O)C[C@@H]4CC(=O)CC[C@]4(C)[C@H]3CC[C@]12C)c1ccccc1 (stereo partly drawn) [Compound I-58]	8 µM (≈ 3.93 µg/mL)	4 µM (≈ 1.97 µg/mL)	4 µM (≈ 1.97 µg/mL)	–	–	–
C[C@H](CC(=O)NCc1ccco1)[C@H]1CC[C@H]2[C@@H]3[C@H](O)C[C@@H]4C[C@H](O)CC[C@]4(C)[C@H]3C[C@H](O)[C@]12C [Compound I-17]	–	–	–	64 µM (≈ 30.3 µg/mL)	32 µM (≈ 15.2 µg/mL)	32 µM (≈ 15.2 µg/mL)
CC[C@@H](NC(=O)C[C@@H](C)[C@H]1CC[C@H]2[C@@H]3C(=O)C[C@@H]4CC(=O)CC[C@]4(C)[C@H]3CC[C@]12C)c1ccc(N(C)C)s1 [Compound I-203]	32 µM (≈ 17.3 µg/mL)	16 µM (≈ 8.65 µg/mL)	32 µM (≈ 17.3 µg/mL)	–	–	–
CC[C@@H](NC(=O)C[C@@H](C)[C@H]1CC[C@H]2[C@@H]3[C@H](OP(=O)(O)O)C[C@@H]4CC(=O)CC[C@]4(C)[C@H]3CC[C@]12C)c1ccc(Br)s1 [Compound I-192]	–	–	–	64 µM (≈ 42.2 µg/mL)	64 µM (≈ 42.2 µg/mL)	64 µM (≈ 42.2 µg/mL)
CCC(NC(=O)C[C@@H](C)[C@H]1CC[C@H]2[C@@H]3C(=O)C[C@@H]4CC(=O)CC[C@]4(C)[C@H]3CC[C@]12C)c1ccc(S(=O)(=O)O)s1 (stereo partly drawn) [Compound I-39]	–	–	–	1 µM (≈ 0.578 µg/mL)	0.5 µM (≈ 0.289 µg/mL)	0.5 µM (≈ 0.289 µg/mL)
CC(C)[C@@H](NC(=O)C[C@@H](C)[C@H]1CC[C@H]2[C@@H]3[C@H](O)CC4=CC(=O)CC[C@]4(C)[C@H]3CC[C@]12C)c1ccc(Br)s1 [Compound I-156-2]	–	–	–	0.25 µM (≈ 0.148 µg/mL)	0.25 µM (≈ 0.148 µg/mL)	0.5 µM (≈ 0.295 µg/mL)
CC[C@@H](NC(=O)C[C@@H](C)[C@H]1CC[C@H]2[C@@H]3C(=O)C[C@@H]4C[C@H](O)CC[C@]4(C)[C@H]3CC[C@]12C)c1ccc(Cl)s1 [Compound I-149]	–	–	–	2 µM (≈ 1.07 µg/mL)	2 µM (≈ 1.07 µg/mL)	2 µM (≈ 1.07 µg/mL)
CC(NC(=O)C[C@@H](C)[C@H]1CC[C@H]2[C@@H]3[C@H](O)C[C@@H]4C[C@H](O)CC[C@]4(C)[C@H]3C[C@H](O)[C@]12C)c1ccccc1 (stereo partly drawn) [Compound I-19]	–	–	–	64 µM (≈ 31.9 µg/mL)	32 µM (≈ 15.9 µg/mL)	32 µM (≈ 15.9 µg/mL)
CC(C)[C@@H](NC(=O)C[C@@H](C)[C@H]1CC[C@H]2[C@@H]3[C@H](O)C[C@@H]4CC(=O)CC[C@]4(C)[C@H]3CC[C@]12C)c1ccc(S(=O)(=O)O)s1 [Compound I-103]	–	–	–	16 µM (≈ 9.5 µg/mL)	16 µM (≈ 9.5 µg/mL)	16 µM (≈ 9.5 µg/mL)
C[C@H](CC(=O)NCc1cccs1)[C@H]1CC[C@H]2[C@@H]3C(=O)C[C@@H]4C[C@H](O)CC[C@]4(C)[C@H]3C[C@H](O)[C@]12C [Compound I-20]	–	–	–	64 µM (≈ 31.2 µg/mL)	32 µM (≈ 15.6 µg/mL)	32 µM (≈ 15.6 µg/mL)
CC(=O)O[C@@H]1CC2=CC(=O)CC[C@]2(C)[C@H]2CC[C@]3(C)[C@@H]([C@H](C)CC(=O)N[C@@H](c4ccc(Cl)s4)C(C)C)CC[C@H]3[C@H]12 [I-158 -1]	–	–	–	0.5 µM (≈ 0.294 µg/mL)	0.5 µM (≈ 0.294 µg/mL)	0.5 µM (≈ 0.294 µg/mL)
C[C@H](CC(=O)NCC1CC1)[C@H]1CC[C@H]2[C@@H]3[C@H](O)C[C@@H]4C[C@H](O)CC[C@]4(C)[C@H]3CC[C@]12C [Compound I-1]	–	–	–	32 µM (≈ 13.8 µg/mL)	32 µM (≈ 13.8 µg/mL)	32 µM (≈ 13.8 µg/mL)
CCC(NC(=O)C[C@@H](C)[C@H]1CC[C@H]2[C@@H]3[C@H](O)C[C@@H]4CC(=O)CC[C@]4(C)[C@H]3CC[C@]12C)c1ccc(Br)s1 (stereo partly drawn) [Compound I-89]	–	–	–	0.5 µM (≈ 0.289 µg/mL)	0.5 µM (≈ 0.289 µg/mL)	0.5 µM (≈ 0.289 µg/mL)
CC(C)[C@@H](NC(=O)C[C@@H](C)[C@H]1CC[C@H]2[C@@H]3[C@H](O)C[C@@H]4CC(=O)CC[C@]4(C)[C@H]3CC[C@]12C)c1cccs1 [Compound I-136]	–	–	–	1 µM (≈ 0.514 µg/mL)	1 µM (≈ 0.514 µg/mL)	1 µM (≈ 0.514 µg/mL)
CC(C)[C@@H](NC(=O)C[C@@H](C)[C@H]1CC[C@H]2[C@@H]3CC[C@@H]4C[C@H](O)CC[C@]4(C)[C@H]3CC[C@]12C)c1ccc(Br)s1 [Compound I-148]	–	–	–	16 µM (≈ 9.26 µg/mL)	16 µM (≈ 9.26 µg/mL)	16 µM (≈ 9.26 µg/mL)
C[C@H](CC(=O)NCc1nccs1)[C@H]1CC[C@H]2[C@@H]3C(=O)C[C@@H]4C[C@H](O)CC[C@]4(C)[C@H]3CC[C@]12C [Compound I-15]	–	–	–	32 µM (≈ 15.1 µg/mL)	32 µM (≈ 15.1 µg/mL)	64 µM (≈ 30.3 µg/mL)

Compound	MIC [1]	MIC [2]	MIC [3]	MIC [1, 4]	MIC [2, 5]	MIC [3, 6]
CC(C)[C@@H](NC(=O)C[C@@H](C)[C@H]1CC[C@H]2[C@@H]3C(=O)CC4=CC(=O)CC[C@]4(C)[C@H]3CC[C@]12C)c1ccc(Br)s1 [Compound I-152]	–	–	–	1 µM (≈ 0.589 µg/mL)	0.5 µM (≈ 0.294 µg/mL)	1 µM (≈ 0.589 µg/mL)
CC[C@@H](NC(=O)C[C@@H](C)[C@H]1CC[C@H]2[C@@H]3[C@H](OS(=O)(=O)O)C[C@@H]4CC(=O)CC[C@]4(C)[C@H]3CC[C@]12C)c1ccc(Cl)s1 [Compound I-106]	–	–	–	0.5 µM (≈ 0.307 µg/mL)	0.5 µM (≈ 0.307 µg/mL)	0.25 µM (≈ 0.154 µg/mL)
CC[C@H](NC(=O)C[C@@H](C)[C@H]1CC[C@H]2[C@@H]3[C@H](O)C[C@@H]4CC(=O)CC[C@]4(C)[C@H]3CC[C@]12C)c1ccc(Br)s1 [Compound I-90]	–	–	–	> 256 µM	> 256 µM	> 256 µM
CC(C)[C@@H](NC(=O)C[C@@H](C)[C@H]1CC[C@H]2[C@@H]3[C@H](O)C[C@@H]4C[C@H](O)CC[C@]4(C)[C@H]3CC[C@]12C)c1ccc(Br)s1 [Compound I-140]	–	–	–	1 µM (≈ 0.595 µg/mL)	1 µM (≈ 0.595 µg/mL)	1 µM (≈ 0.595 µg/mL)
CCC(NC(=O)C[C@@H](C)[C@H]1CC[C@H]2[C@@H]3[C@H](O)[C@H](O)[C@@H]4C[C@H](O)CC[C@]4(C)[C@H]3CC[C@]12C)c1ccc(Br)s1 (stereo partly drawn) [Compound I-118]	–	–	–	16 µM (≈ 9.55 µg/mL)	8 µM (≈ 4.77 µg/mL)	8 µM (≈ 4.77 µg/mL)
C[C@H](CC(=O)NCc1ccccc1)[C@H]1CC[C@H]2[C@@H]3[C@H](O)C[C@@H]4C[C@H](O)CC[C@]4(C)[C@H]3CC[C@]12C [Compound I-4]	–	–	–	32 µM (≈ 15 µg/mL)	8 µM (≈ 3.74 µg/mL)	16 µM (≈ 7.48 µg/mL)
CC(C)[C@H](NC(=O)C[C@@H](C)[C@H]1CC[C@H]2[C@@H]3[C@H](O)[C@H](O)[C@@H]4C[C@H](O)CC[C@]4(C)[C@H]3CC[C@]12C)c1ccc(Br)s1 [Compound I-121]	–	–	–	> 256 µM	> 256 µM	> 256 µM
C[C@H](CC(=O)NC(c1ccccc1)c1cccs1)[C@H]1CC[C@H]2[C@@H]3C(=O)C[C@@H]4CC(=O)CC[C@]4(C)[C@H]3CC[C@]12C (stereo partly drawn) [Compound I-55]	–	–	–	64 µM (≈ 34.9 µg/mL)	32 µM (≈ 17.5 µg/mL)	32 µM (≈ 17.5 µg/mL)
CCC(NC(=O)C[C@@H](C)[C@H]1CC[C@H]2[C@@H]3[C@H](O)C[C@@H]4CC(=O)CC[C@]4(C)[C@H]3CC[C@]12C)c1ccc(Cl)s1 (stereo partly drawn) [Compound I-86]	–	–	–	0.5 µM (≈ 0.267 µg/mL)	0.5 µM (≈ 0.267 µg/mL)	0.5 µM (≈ 0.267 µg/mL)
CC[C@@H](NC(=O)C[C@@H](C)[C@H]1CC[C@H]2[C@@H]3[C@H](OS(=O)(=O)O)C[C@@H]4CC(=O)CC[C@]4(C)[C@H]3CC[C@]12C)c1ccc(Br)s1 [Compound I-109]	–	–	–	0.5 µM (≈ 0.329 µg/mL)	0.5 µM (≈ 0.329 µg/mL)	0.25 µM (≈ 0.165 µg/mL)
CC[C@H](NC(=O)C[C@@H](C)[C@H]1CC[C@H]2[C@@H]3[C@H](OS(=O)(=O)O)C[C@@H]4CC(=O)CC[C@]4(C)[C@H]3CC[C@]12C)c1ccc(Cl)s1 [Compound I-105]	–	–	–	> 256 µM	> 256 µM	> 256 µM
CCCCCCCC(NC(=O)C[C@@H](C)[C@H]1CC[C@H]2[C@@H]3C(=O)C[C@@H]4CC(=O)CC[C@]4(C)[C@H]3CC[C@]12C)c1cccs1 (stereo partly drawn) [Compound I-45]	–	–	–	> 256 µM	> 256 µM	> 256 µM
CC(C)[C@@H](NC(=O)C[C@@H](C)[C@H]1CC[C@H]2[C@@H]3[C@H](N)C[C@@H]4CC(=O)CC[C@]4(C)[C@H]3CC[C@]12C)c1ccc(Cl)s1 [Compound I-174]	–	–	–	32 µM (≈ 17.5 µg/mL)	32 µM (≈ 17.5 µg/mL)	32 µM (≈ 17.5 µg/mL)
CC[C@H](NC(=O)C[C@@H](C)[C@H]1CC[C@H]2[C@@H]3[C@H](O)C[C@@H]4CC(=O)CC[C@]4(C)[C@H]3CC[C@]12C)c1ccc(S(=O)(=O)O)s1 [Compound I-93]	–	–	–	> 256 µM	> 256 µM	> 256 µM
CC(C)[C@@H](NC(=O)C[C@@H](C)[C@H]1CC[C@H]2[C@@H]3[C@H](O)CC4=CC(=O)C=C[C@]4(C)[C@H]3CC[C@]12C)c1ccc(Cl)s1 [Compound I-162-2]	–	–	–	0.5 µM (≈ 0.272 µg/mL)	0.5 µM (≈ 0.272 µg/mL)	0.5 µM (≈ 0.272 µg/mL)
C[C@H](CC(=O)NCc1ccco1)[C@H]1CC[C@H]2[C@@H]3C(=O)C[C@@H]4C[C@H](O)CC[C@]4(C)[C@H]3CC[C@]12C [Compound I-13]	–	–	–	16 µM (≈ 7.29 µg/mL)	16 µM (≈ 7.29 µg/mL)	16 µM (≈ 7.29 µg/mL)
